Test results published in US20160022775A1, “TREATING LYSOSOMAL STORAGE DISEASE” (UNIVERSITY OF ROCHESTER, priority 2013, published 2016).
“Also recorded” adds a separate entry of the source.

What was measured:
[1] = test system: primary OPCs; assay: Screen for protection against OPC death induced by lethal concentrations of psychosine; assay type: cell-based, rat; conditions: for rescue of cell survival from psychosine: primary OPCs, lethal psychosine exposure
Experimental: (§1) Experiments were conducted to identify FDA-approved agents that rescue precursor cells of the CNS from the effects of the lipids thought to be toxic in KD, GD and MLD. To identify therapeutic agents that could be candidates for relatively rapid translation to the clinic, candidate agents were screened (based on cellular and molecular analyses) and unbiased drug screens were conducted using the NINDSII library of 1040 compounds approved by the FDA or in clinical trials. The intent of these screens was to discover previously unknown activities of agents for which pharmacokinetic and toxicological information is already available. The initial screening assays used are for (i) protection against OPC death induced by lethal concentrations of toxic lipids (48 hr exposure) and (ii) protection of OPC division induced by exposure to sublethal concentrations of toxic lipids.
In this screen, a library of 1040 compounds, either approved for use or in clinical trials, were examined at three different doses for their ability to protect against psychosine-induced cell death. […]

[2] = test system: primary OPCs; assay: Screen for protection of OPC division at sublethal concentrations of psychosine; assay type: cell-based, rat; conditions: psychosine concentrations that suppress division without appreciable death
Experimental: as §1, with “lipids. […]” for “lipids.”

[3] = test system: primary OPCs; assay: Survival of OPCs exposed to toxic lipids (calcein AM / propidium iodide, CELIGO); assay type: cell-based
Experimental: Whether toxic lipids have similar effects on the function of oligodendrocyte precursor cells (OPCs, the direct ancestors of myelin-forming oligodendrocytes), due to the common features of myelin breakdown and failure to repair such damage in LSDs, was determined. These experiments all used standard techniques (see Mayer et al. PNAS, 91: 7496-7500 (1994); Ibarrola et al. Dev. Biol. 180: 1-121 (1996); Smith et al. PNAS 97: 10032-10037 (2000); Power et al. Dev. Biol. 245: 362-375 (2002); Dietrich et al. J. Biol. 5: e22 (2006); Li et al. PLoS Biol. 5: e35 (2007)), as adapted to enable rapid automated analysis of microscopy images captured using the CELIGO® imaging system (Brooks Automation, Chelmsford, Mass.). This system enables collection of data using brightfield and three-color fluorescence and provides similar information to be obtained at the single cell level in adherent cell cultures as yielded by flow cytometry. This approach enables quantitatively analysis of 80 different experimental conditions (in triplicate) per hour.
Studies on division and survival of OPCs exposed to 0.1, 0.5, 1, 2, 5 or 10 μM PC, GPS or LS were conducted for 1, 2, 3 or 5 days. These experiments followed standard procedures (see Mayer et al. PNAS, 91: 7496-7500 (1994); Dietrich et al. J. Biol. 5: e22 (2006); and Han et al. J. Biol. 7 (4):12 (2008)) except that cell death was quantified using calcein AM and propidium iodide (PI) labeling of live cultures was used to identify live and dead cells, respectively. […] These dyes effectively overcome the problems with dyes for which cell numbers are inferred from metabolic activity (e.g., MTT, Alamar Blue), and provide quantitative information on cell numbers. Independent confirmation was obtained in all cases by visual examination of cultures. In these, and all other cases, all experiments were repeated at least three times, and all data points were collected in triplicate. All experiments were conducted in conditions of 5% O2, to more closely mimic physiological oxygen concentrations.
The sensitivity of primary OPCs to PC was determined. The sensitivity of the cells to glucopsychosine (GPC) and lysosulfatide (LS) was also examined. […] Thus, OPCs are even more sensitive to PC than oligodendrocytes, which are sensitive at 10 μM psychosine. More critically, they are an order of magnitude more sensitive than indicated by studies described in Zaka et al. (Mol. Cell Neurosci. 30 (3): 398-407 (2005)) on immortalized cell lines.

[4] = test system: human fetal neuroepithelial stem cells (hNSCs); assay: Sensitivity of human CNS precursor cells to toxic lipids; assay type: cell-based
[5] = test system: primary oligodendrocyte progenitor cells; assay: Protection of OPCs against toxicity of glucopsychosine and lysosulfatide; assay type: cell-based; conditions: OPC survival
Description: Since lysosomal storage disorders are so rare, there is a strong disincentive to invest heavily in treatments. Therefore, there is a clear need to identify agents that would be of use in the treatment of multiple lysosomal storage disorders. […] Nonetheless, due to the importance of such a goal, the agents that protect against both cell death and suppression of cell division caused by exposure to psychosine were examined in order to determine their potential utility in protection against the toxic effects of glucopsychosine (elevated in Gaucher's disease) and of lysosulfatide (elevated in metachromatic leukodystrophy). These diseases were chosen as they come from two functionally different disease groups as defined by a cellular assay for lysosomal function wherein BODIPY-LacCer uptake is detected.
The ability of agents that protect against psychosine mediated suppression of cell division and cell survival to also protect against the toxicity of glucopsychosine and lysosulfatide was examined.

[6] = test system: twitcher −/− mice; assay: In vivo treatment of twitcher -/- mice (model of Krabbe disease); conditions: for appearance and behavior (films, still images): 24-day-old twi−/− mice
Description: In order to determine whether agents identified in in vitro studies are capable of providing an in vivo benefit, the effects of IGF-1 were examined in twitcher −/− mice, an accepted model of Krabbe disease. The twitcher −/− mice harbor a mutation in galactocerebosidase that mimics Krabbe disease. The strategy for in vivo analyses was to determine whether FDA-approved compounds of potential interest improve neurological symptoms and/or extend survival times of twi−/− mice. These studies used techniques employed in studies on toxicity of chemotherapeutic agents for the CNS (See Dietrich et al. J. Biol. 5 (7): e22 (2006); Han et al. CNS J. Biol. 7: e12 (2008)).
In in vivo experiments, IGF-I was administered daily, beginning 10 days after birth, through i.p. injection (100 μg/kg, which is below dosages used in other studies using peripheral administration (See Aberg et al. J. Neurosci. 20: 2896-2903 (2000)). This time point is earlier than the expression of neurological symptoms but is considerably later than that used in attempts to treat these mice by HSC transplants, enzyme replacement therapy or both combined (See Qin et al. Mol. Genet. Metab. 107: 186-196 (2012)). Mice were evaluated at 24 days of age to enable analysis of cell division in vivo. Comparative analysis after 40 days was not possible due to death of the control (saline-treated) twi−/− mice shortly after 40 days of age.
Drugs are delivered once daily by i.p. administration (using 100 μg/kg, which provide benefit (see FIG. 8). All animals are marked and genotyped within the first week after birth to identify +/+, +/− and −/− pups. Outcome measures such as (i) weight gain, motor activity, rotorod analysis, auditory brainstem response and survival are analyzed.
Mice were sacrificed at Day 25 to examine OPC division in vivo (FIG. 8).

[7] = test system: immortalized cell line characterized as an oligodendrocyte progenitor cell line; conditions: Zaka et al.; immortalized cell line, 50 μM psychosine; cited from earlier work
[8] = twi−/− mice, 24 days of age, 100 μg/kg i.p. daily

CC(C)(C)NCC(O)c1ccccc1Cl (centres unmarked) [tulobuterol]
rescue of cell survival from psychosine [1]: inhibit cell death and reduce suppression of cell division; also recorded: rescued both cell survival and cell division | rescue of cell division from psychosine [2]: inhibit cell death and reduce suppression of cell division; also recorded: rescued both cell survival and cell division

CCCCCCCCCCCCC/C=C/[C@@H](O)C(N)CO[C@@H]1O[C@H](CO)[C@@H](O)[C@H](O)[C@@H]1O (some centres unmarked) [glucopsychosine]
exposure level as low as which toxic for OPCs [3]: 3.304 | exposure range toxic for primary OPCs and other primary CNS cells [3]: low micromolar range | vulnerability of hNSCs compared with rat OPCs [4]: at least as vulnerable

CC(C)(C)CC(C)(C)c1ccc(O)c(Cc2ccc(Cl)cc2Cl)c1 [clofoctol]
rescue of cell survival from psychosine [1]: inhibit cell death and reduce suppression of cell division; also recorded: rescued both cell survival and cell division | rescue of cell division from psychosine [2]: inhibit cell death and reduce suppression of cell division; also recorded: rescued both cell survival and cell division

VEGF
rescue of cell survival from psychosine [1]: ability to protect both cell division and cell survival; also recorded: inhibit cell death and reduce suppression of cell division | rescue of cell division from psychosine [2]: ability to protect both cell division and cell survival; also recorded: inhibit cell death and reduce suppression of cell division

CCCCCCCCCCCCC/C=C/[C@@H](O)[C@@H](N)CO[C@@H]1O[C@H](CO)[C@H](O)[C@H](OS(=O)(=O)O)[C@H]1O [lysosulfatide]
exposure level as low as which toxic for OPCs [3]: 3.304 | exposure range toxic for primary OPCs and other primary CNS cells [3]: low micromolar range

C=C[C@@]1(C)CC(=O)[C@]2(O)[C@@]3(C)[C@@H](O)CCC(C)(C)[C@@H]3[C@H](O)[C@H](OC(C)=O)[C@@]2(C)O1 [colforsin]
rescue of cell survival from psychosine [1]: inhibit cell death and reduce suppression of cell division; also recorded: rescued both cell survival and cell division | rescue of cell division from psychosine [2]: inhibit cell death and reduce suppression of cell division; also recorded: rescued both cell survival and cell division

COc1ccc(C(Cl)=C(c2ccc(OC)cc2)c2ccc(OC)cc2)cc1 [chlorotrianisene]
rescue of cell survival from psychosine [1]: inhibit cell death and reduce suppression of cell division; also recorded: rescued both cell survival and cell division | rescue of cell division from psychosine [2]: inhibit cell death and reduce suppression of cell division | rescue of cell division from psychosine ([2]; listed as Chlorotrianisene): rescued both cell survival and cell division

IGF-1: insulin-like growth factor-I, polypeptide
dosage at which beneficial effects on survival are seen ([1]; primary OPCs exposed to psychosine): 10 ng/mL | rescue of cell survival from psychosine [1]: ability to protect both cell division and cell survival; also recorded: rescued both division and survival; also recorded: protects against psychosine mediated suppression of cell division and cell survival; also recorded: inhibit cell death and reduce suppression of cell division | rescue of cell division from psychosine [2]: ability to protect both cell division and cell survival; also recorded: rescued both division and survival; also recorded: protects against psychosine mediated suppression of cell division and cell survival; also recorded: inhibit cell death and reduce suppression of cell division; also recorded: Rescue of cell division is also achieved at physiologically relevant dosages | protection against toxicity of glucopsychosine [5]: protects against the toxicity of glucopsychosine and lysosulfatide; also recorded: similarly effective against lysosulfatide and glucopsychosine as it was against psychosine | protection against toxicity of lysosulfatide ([5]; survival data at 5 days): protects against the toxicity of glucopsychosine and lysosulfatide; also recorded: similarly effective against lysosulfatide and glucopsychosine as it was against psychosine | appearance and behavior (films, still images) ([6]; 100 μg/kg i.p. daily): normal body extension, sleek fur and evidence of extensive locomotor behavior | appearance and behavior (films, still images) ([6]; 100 μg/kg i.p. daily, listed as IGF-I): essentially normal in appearance | locomotor activity (velocity of movement, cm/sec) [6, 8]: statistically normal locomotor activity | weight gain [6, 8]: normal weight gain | locomotor activity (velocity of movement, cm/sec) ([6]; twi−/− mice, 24 days of age, 100 μg/kg i.p. daily, listed as IGF-I): restores movement to normal levels | more dividing OPCs than in saline-treated mice ([6]; twi−/− mice, corpus callosum, Day 25, 100 μg/kg i.p. daily from 10 days after birth): ~45% | dose giving marked protection from psychosine-induced cell death [7]: one | exposure level giving slight (marginal) reduction of psychosine-induced cell death [7]: 100 ng/mL
